PMC11892739, “Site-specific molecular glues for the 14-3-3/Tau pS214 protein–protein interaction via reversible covalent imine tethering” (RSC Medicinal Chemistry, 2025)

Target: T1, 14-3-3γ/Tau pS214 interaction (Homo sapiens, UniProt P61981)
T1 construct: made in house; host or cells: NiCo21 (DE3) E. coli
T1 sequence (P61981 1-247): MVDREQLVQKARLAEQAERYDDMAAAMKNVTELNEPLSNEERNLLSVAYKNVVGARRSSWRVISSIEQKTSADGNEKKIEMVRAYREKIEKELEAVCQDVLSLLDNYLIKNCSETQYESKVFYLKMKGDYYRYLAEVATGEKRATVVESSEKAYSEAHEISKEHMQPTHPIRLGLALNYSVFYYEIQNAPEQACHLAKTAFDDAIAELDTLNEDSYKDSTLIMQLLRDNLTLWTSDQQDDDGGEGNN
Assay: Fluorescence anisotropy 14-3-3γ titration with compound and monovalent Tau pS214 peptide
Assay type: binding
Settings: for apparent cooperativity factor (app. α), 14-3-3γ/Tau pS214: 2D titrations, 14-3-3γ titrated at varied compound concentrations, saturation of the ratio
Procedure: FA assays in which 14-3-3γ was titrated to a constant concentration of compound (250 μM) in the presence of the distinct monovalent Tau peptide (10 nM) were performed.
The determined stabilization factors are concentration-dependent (here 250 μM of compound) and might differ based on assay design. […] The app. α-factors of these compounds for both 14-3-3/Tau complexes were determined by 14-3-3γ titrations in the presence of varied concentrations of the particular compound (Fig. 5d and e). Both compounds reached saturation for both 14-3-3γ/Tau complexes enabling accurate determination of the α-factor. The app. α-factors of aldehydes 1 and 18 were plotted for both 14-3-3γ/Tau complexes to investigate phospho-binding site selective cooperativity (Fig. 5f and h). To do so, the stabilization factors at a given compound concentration were plotted against the compound concentration, leading to the determination of the app. α-factors. […]
chromatography (HisTrap high performance cartridges, Cytiva). Typically two 5 mL columns were used for a 2 L culture in which the lysate was loaded on the column, washed with 10 CV wash buffer (50 mM Hepes, pH 8.0, 300 mM NaCl, 25 mM imidazole, 2 mM βME), and eluted with several fractions (2-4 CV) of elution buffer (50 mM Hepes, pH 8.0, 300 mM NaCl, 250 mM imidazole, 2 mM βME). Fractions containing the 14-3-3 protein were combined and dialyzed into 25 mM HEPES pH 8.0, 200 mM NaCl, 10 mM MgCl2, 2 mM βME, followed by dialysis into 25 mM HEPES, 100 mM NaCl, 10 mM MgCl2, 500 μM TCEP (adjusted to pH 8.0). Dialyzed protein was concentrated to ∼40 mg/mL, analyzed by Q -Tof LC/MS, and aliquots were flash -frozen for storage at −80 °C. […]
0.1% (v/v) Tween20, 0.1% (w/v) BSA). Dilution series were made in polystyrene low -volume 384 -well plates (Corning #4514, Black Round Bottom). Measurements were performed directly after plate preparation, using a Tecan SPARK plate reader at room temperature ( λex: 485±20 nm; λem: 535±25 nm; mirror: automatic; flashes: 30; settle time: 1 ms; gain: optimal; Z -position: calculated from well). Wells containing only fluorescein labelled peptide were used to set as G -factor calibrated from these wells. All data were analyzed using GraphPad Prism (10.0.1) and fitted with a four -parameter logistic model (4PL) to determine binding affinities (dissociation constant, KD). All data shown is background corrected for the signal without 14 -3-3ζ and the mean and standard deviation of technical duplicate is plotted, assay performed in a scientific duplicate for hit compounds.
Fluorescence Anisotropy – 14-3-3 titrations in the presence of compound To characterize the affinity of the Tau peptides for 14-3-3 in the presence of compound, 14-3-3ζ or γ was titrated in a 2-fold dilution series starting at 400 (for the 14-3-3ζ titrations to Tau pS2) or 800 (for the 14-3-3γ titrations to Tau pS214 or pS324) µM. 14-3-3 was added to 10 nM of fluorescein-labeled peptide (Tau pS2, Tau pS214 or Tau pS324) in the presence of 250 µM compound (1% DMSO). The assays were performed in a similar way as described above. Data shown is the average and standard deviation of a technical duplicate, top plateau corrected where needed, assay performed in a scientific duplicate. […]
The peptide screen was performed in a similar way as the 14-3-3ζ titration in the precence of compound.
14-3-3ζ was titrated in a 2-fold dilution series (starting at 400 µM 14-3-3ζ) to 100 nM of fluorescein-labeled peptides and 250 µM compound 18 (1% DMSO) in FA buffer (10 mM HEPES pH 7.4, 150 mM […]
Data shown is the average of a scientific triplicate. […]
DSF was performed using 40 µl samples containing 2.5 µM 14 -3-3ζ, 25 µM Tau peptide (Tau pS2, Tau pS214 or Tau pS324), […] (1% DMSO) and 5x ProteoOrange (Lumiprobe, 5000x stock in DMSO) in 10 mM HEPES, 150 mM NaCl, 50 µM TCEP (pH 7.4). The samples were heated from 35 °C to 79°C at a rate of 0.3 °C per 15 s in a C FX96 Touch Real-Time PCR Detection System (Bio -Rad). Fluorescence […]

| SF250μM for the 14-3-3γ/Tau pS214 complex (250 μM compound, 10 nM Tau pS214 peptide, internal DMSO reference) | apparent cooperativity factor (app. α), 14-3-3γ/Tau pS214 | Compound |
| --- | --- | --- |
| 8.6 | 10.2 | CCc1ccc(-c2nccn2-c2ccc(C=O)c(Br)c2)cc1 [Compound 18] |
|  | 3.8 | O=Cc1ccc(-n2ccnc2-c2ccccc2)cc1Br [Compound 1] |
